Assay results: patent US12427149B2, “Methods and compositions for the prevention and treatment of hearing loss” (Ting Therapeutics, Inc., priority 2019, dated 2025)
Like-named read-outs stand apart in the source and are kept apart here.

What was measured:
[1] = test system: HEI-OC1 cells; experiment: Protection against cisplatin-induced Caspase-3/7 activity in HEI-OC1 cells (Caspase-Glo 3/7); assay type: cell-based, mouse; conditions: for IC50: Mus musculus, HEI-OC1; for protection against cisplatin-induced cell death in HEI-OC1 (in words): kinase inhibitor library screen
Experimental: A screen of a library composed of 75 kinase inhibitors was conducted to identify inhibitors that protect against cisplatin-induced hair cell loss.

[2] = test system: mouse cochlear explants; experiment: tissue or blood; conditions: for IC50: Mus musculus; for protection against cisplatin-induced hair cell loss/death in mouse cochlear explants (in words): cisplatin 150 μM
Experimental: Dab alone or Dab added 1 h before cisplatin (150 μM) to P3 FVB cochlear explants for 24 h.
Now referring to FIG. 9, testing of a B-Raf/MEK1/2 inhibitor combination in mouse cochlear explant cultures. Compounds alone or combination of the compounds were added 1 h before cisplatin (150 μM) to P3 FVB cochlear explants for 24 h, and number of outer hair cells per 160 μm of middle turn regions of the cochlea were counted by phalloidin staining, mean±SEM, P=*<0.05, P=***<0.001, compared to cisplatin alone by unpaired two-tailed Student's t-test.
Methods of using a zebrafish model system to evaluate small molecules capable of decreasing, inhibiting or preventing sensory hair cell damage or death are provided. Zebrafish are an advantageous animal model system for studying causes and prevention of hearing loss in comparison to mammalian animal model systems. The relative inaccessibility of hair cells in mammalian organisms limits their use as a high throughput model for identifying compounds that would prevent toxin mediated and other forms of hair cell death from occurring. The lateral line neuromast hair cells of zebrafish (Danio rerio) are structurally and functionally similar to mammalian sensory hair cells. […] Compounds alone or compounds added 1 h before cisplatin (150 μM) to P3 FVB cochlear explants for 24 h, and number of outer hair cells per 160 μm of middle turn regions of the cochlea were counted by phalloidin staining, mean±SEM, P=*<0.05, P=**<0.005, ***P<0.0005 compared to cisplatin alone by unpaired two-tailed Student's t-test.
Compounds alone (purple bar) or combination of the compounds were added 1 h before cisplatin (150 μM) to P3 FVB cochlear explants for 24 hrs, and number of outer hair cells per 160 μm of middle turn regions of the cochlea were counted by phalloidin staining, mean±SEM, P=*<0.05, P=**<0.005, compared to cisplatin alone by unpaired two-tailed Student's t-test.

[3] = test system: zebrafish lateral line neuromast hair cells; experiment: Protection of zebrafish lateral line neuromast hair cells in vivo against cisplatin; design: species or system zebrafish (Danio rerio)
Experimental: Lateral line neuromasts of zebrafish were stained and number of hair cells per neuromast were counted. Cisplatin (CP): 400 μM. *, **, and ***: P<0.05, 0.01, and 0.001 compared to CP alone.
Protection of zebrafish lateral line neuromast hair cells in vivo. […] After the treatment, animals were transferred to fresh fish water to recover for 1 hour and then fixed and immunostained for GFP and otoferlin. Quantification of the number of hair cells per neuromast after the different treatments represented as mean+/−SEM. Student's t test was performed, *p<0.05, **p<0.01, ***p<0.001, compared versus CP 400 μM. Neuromasts inspected: SO3 (supraorbital line neuromast) and O1-2 (otic line neuromasts) from at least 3 different animals.

[4] = test system: B-RAF, ERK and MEK; experiment: Western blots of cisplatin activated B-Raf signaling cascade in HEI-OC1 cells; assay type: cell-based, mouse; conditions: 50 μM cisplatin, 1 hour; dose dependent
Source text: Western blots show representative changes of each signaling molecule upon cisplatin and Dab treatment at specific doses (5B) and times (5A).

[5] = test system: HEI-OC1 cells; conditions: CELLTITER-GLO
[6] = Table 1, read-out: HEI-OC1 cell line IC50
[7] = read-out: Mouse cochlear explant IC50
[8] = read-out: IC50, protection against cisplatin-induced hair cell loss in mouse cochlear explants

Row | SMILES | IC50 [1, 6] [nM] | protection against cisplatin-induced cell death in HEI-OC1 (in words) [1] | IC50 [2, 7] [nM] | LD50 in mouse cochlear explants ([2]; FVB, mouse, 24 h) | IC50 [2, 8] [nM] | protection against cisplatin-induced hair cell loss/death in mouse cochlear explants (in words) [2] | further results
1 | CC1(COc2ccc3c(c2)ncn3-c2ccc3cccc(N4CCC(N)CC4)c3n2)COC1 [Crenolanib] | 2400 | potently protected | 350 |  |  |  | protection against cisplatin-induced hair cell loss/death in mouse cochlear explants (in words) ([2]; listed as CRENOLANIB): potently protected; protection against cisplatin-induced hair cell loss/death in mouse cochlear explants (in words) ([2]; listed as crenolanib): protected
2 | CC(C)(C)c1nc(-c2cccc(NS(=O)(=O)c3c(F)cccc3F)c2F)c(-c2ccnc(N)n2)s1 [Dabrafenib] | 13500 | potently protected | 30 | 13.47 µM | 30 | potently protected | Zebrafish cisplatin protection at concentration ([3]; FIG. 11A): 0.100 µM; Zebrafish protection ([3]; Table 1, protective concentration, cisplatin 400 μM): 0.100 µM; effect on cisplatin-mediated activation of B-RAF, ERK and MEK (in words) [4]: mitigates
3 | FC(F)(F)c1ccc(/C=C/c2nc(COc3ccc(CCCCn4ccnn4)cc3)co2)cc1 [Mubritinib] | 39 | potently protected | 2 |  | 2.5 | potently protected | IC50 ([1]; read-out: IC50, protection against cisplatin-induced Caspase-3/7 activity in HEI-OC1 cells): 4 nM; LD50 in mouse cochlear explants ([2]; FVB, mouse): > 0.5 µM; LD50 in HEI-OC1 cells [5]: > 55 µM
4 | CCCS(=O)(=O)Nc1ccc(F)c(C(=O)c2c[nH]c3ncc(Cl)cc23)c1F [PLX-4750] |  |  |  |  | 200 | protected | 
5 | CCOc1cc2ncc(C#N)c(Nc3ccc(F)c(Cl)c3)c2cc1NC(=O)/C=C/CN(C)C [Pelitinib] |  |  |  |  |  |  | IC50 ([1]; cisplatin-Caspase-Glo 3/7, read-out: IC50, protection against cisplatin-induced Caspase-3/7 activity in HEI-OC1 cells): 600 nM; protection of outer hair cells against cisplatin-induced hair cell loss in mouse cochlear explants ([2]; 1 hour pre-incubation, N=3): 49%
6 | Cn1c(Nc2ccc(C(F)(F)F)cc2)nc2cc(Oc3ccnc(-c4ncc(C(F)(F)F)[nH]4)c3)ccc21 [RAF-265] |  |  |  | greater than 3 μM | 20 | protected | 
7 | O=C(Nc1cccc(Cl)c1)Nc1ncc(CCNc2ncnc3ccsc23)s1 [SNS-314] | 7490 | potently protected | 50 |  |  | protected | protection against cisplatin-induced hair cell loss/death in mouse cochlear explants (in words) ([2]; listed as SNS314): potently protected
8 | CC(=O)Nc1cccc(-n2c(=O)n(C3CC3)c(=O)c3c(Nc4ccc(I)cc4F)n(C)c(=O)c(C)c32)c1 [Trametinib] |  |  |  |  | 50 |  | LD50 in mouse cochlear explants [2]: greater than 3 μM
9 | CCCS(=O)(=O)Nc1ccc(F)c(C(=O)c2c[nH]c3ncc(-c4ccc(Cl)cc4)cc23)c1F [Vemurafenib] |  |  |  | greater than 3 μM | ~200 |  | 
